Columns and labels:
HSD17B13 = HSD17B13 (Homo sapiens (Human), UniProt Q7Z5P4); experiment: HSD17B13 enzymatic inhibition assay (150 nM or 50 nM HSD17B13); assay type: biochemical; settings: 50 nM HSD17B13; read-out: Inhibition of 50 nM of HSD17B13 IC50
[1] = Microsome stability assay, human liver microsomes; assay type: in vitro ADME; settings: 1 μM compound, 0.5 mg/mL microsomal protein
Method: (§1) Compounds of the disclosure were screened in microsome stability assays. For the screen, test compounds were incubated at 37° C. with either human liver microsomes (Corning; #452117) or mouse liver microsomes (XenoTech; #M1000), pooled from multiple donors, at 1 μM in the presence of a NADPH regenerating system at 0.5 mg/mL microsomal protein. Positive controls included in the assay were testosterone (3A4 substrate), propafenone (2D6) and diclofenac (2C9). Samples were removed at different time points (0, 5, 10, 20, 30 and 60 minutes) and immediately mixed with cold acetonitrile containing internal standard (IS, 200 ng/mL tolbutamide and 200 ng/mL labetalol). Test compounds incubated with microsomes for 60 minutes without the NADPH regenerating system was also included. A single point for each test condition (n=1) was obtained, and samples were analyzed by LC/MS/MS. Disappearance of the test compound was assessed based on peak area ratios of analyte/IS (no standard curve).

[2] = Microsome stability assay, mouse liver microsomes; assay type: in vitro ADME; settings: 1 μM compound, 0.5 mg/mL microsomal protein
Method: as §1

[3] = human, human liver microsomes, pooled, NADPH, 37° C., read-out: Microsome Stability Human liver microsomes Cl
[4] = human, human liver microsomes, pooled, NADPH, 37° C., read-out: Microsome Stability Human liver microsomes T½
[5] = mouse, mouse liver microsomes, pooled, NADPH, 37° C., read-out: Microsome Stability Mouse liver microsomes Cl
[6] = mouse, mouse liver microsomes, pooled, NADPH, 37° C., read-out: Microsome Stability Mouse liver microsomes T½

HSD17B13, sequence (Q7Z5P4 other isoform, or with tags, fused parts or gaps): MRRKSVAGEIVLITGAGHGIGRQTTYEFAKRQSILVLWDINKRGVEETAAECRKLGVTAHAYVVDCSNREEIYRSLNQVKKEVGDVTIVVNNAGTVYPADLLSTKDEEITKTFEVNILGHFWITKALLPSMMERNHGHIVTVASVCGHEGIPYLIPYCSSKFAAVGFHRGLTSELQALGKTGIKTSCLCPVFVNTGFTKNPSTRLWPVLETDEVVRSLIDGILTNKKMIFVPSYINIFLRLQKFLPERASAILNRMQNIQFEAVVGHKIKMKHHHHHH

IC50 (HSD17B13)	Microsome Stability Human liver microsomes % Remaining @60 min [1]	microsomal CLint at 1 μM [1, 3]	half-life at 1 μM [1, 4]	Microsome Stability Mouse liver microsomes % Remaining @60 min [2]	microsomal CLint at 1 μM [2, 5]	half-life at 1 μM [2, 6]	microsomal CLint at 1 h, 1 µM [1, 3]	half-life at 1 h, 1 µM [1, 4]	microsomal CLint at 1 h, 1 µM [2, 5]	half-life at 1 h, 1 µM [2, 6]	Structure (SMILES)
350 nM	1.80%	–	–	4%	–	–	463 µL/min/mg	2.99 min	182 µL/min/mg	7.61 min	Cc1ccc(C(CC2CC2)NC(=O)c2ccc(C(F)(F)F)[nH]c2=O)cc1 (stereo not drawn) [Compound 401, N-(2-cyclopropyl-1-(p-tolyl)ethyl)-2-oxo-6-(trifluoromethyl)-1,2-dihydropyridine-3-carboxamide]
50 nM	0.36%	–	–	25.30%	–	–	364 µL/min/mg	3.81 min	43.6 µL/min/mg	31.8 min	CCC1CCc2cc(C)ccc2C1NC(=O)c1ccc(C(F)(F)F)[nH]c1=O (stereo not drawn) [Compound 543, N-(2-ethyl-6-methyl-1,2,3,4-tetrahydronaphthalen-1-yl)-2-oxo-6-(trifluoromethyl)-1,2-dihydropyridine-3-carboxamide]
140 nM	1%	–	–	65%	–	–	437 µL/min/mg	3.17 min	14.4 µL/min/mg	96.3 min	Cc1ccc(C(CC2CCC2)NC(=O)c2ccc(C(F)(F)F)[nH]c2=O)cc1 (stereo not drawn) [Compound 557, N-(2-cyclobutyl-1-(p-tolyl)ethyl)-2-oxo-6-(trifluoromethyl)-1,2-dihydropyridine-3-carboxamide]

The remaining lines, values behind:

Structure (SMILES)	IC50 (HSD17B13)	Microsome Stability Human liver microsomes % Remaining @60 min [1]	microsomal CLint at 1 μM [1, 3]	half-life at 1 μM [1, 4]	Microsome Stability Mouse liver microsomes % Remaining @60 min [2]	microsomal CLint at 1 μM [2, 5]	half-life at 1 μM [2, 6]	microsomal CLint at 1 h, 1 µM [1, 3]	half-life at 1 h, 1 µM [1, 4]	microsomal CLint at 1 h, 1 µM [2, 5]	half-life at 1 h, 1 µM [2, 6]
Cc1ccc2c(c1)[C@H](NC(=O)c1ccc(C(F)(F)F)[nH]c1=O)C[C@@H](C)N2 [Compound 370, N-((2R,4R)-2,6-dimethyl-1,2,3,4-tetrahydroquinolin-4-yl)-2-oxo-6-(trifluoromethyl)-1,2-dihydropyridine-3-carboxamide]	270 nM	86.70%	< 9.6 µL/min/mg	> 145 min	99.10%	< 9.6 µL/min/mg	> 145 min	–	–	–	–
Cc1ccc2c(c1)SC(C)CC2NC(=O)c1ccc(C(F)(F)F)[nH]c1=O (stereo not drawn) [Compound 385, N-(2,7-dimethylthiochroman-4-yl)-2-oxo-6-(trifluoromethyl)-1,2-dihydropyridine-3-carboxamide]	40 nM	1%	–	–	43%	–	–	643 µL/min/mg	2.15 min	27 µL/min/mg	51.3 min
CCC1Cc2cc(OC)ccc2C(NC(=O)c2ccc(C(F)(F)F)[nH]c2=O)C1 (stereo not drawn) [Compound 390, N-(3-ethyl-6-methoxy-1,2,3,4-tetrahydronaphthalen-1-yl)-2-oxo-6-(trifluoromethyl)-1,2-dihydropyridine-3-carboxamide]	70 nM	11%	–	–	62.80%	–	–	151 µL/min/mg	9.15 min	16.8 µL/min/mg	82.3 min

From patent US11957687B2 (REGENERON PHARMACEUTICALS, INC., priority 2019, dated 2024)
